Test results published in paper PMC4523242 (Antiviral Research, 2014).
Read-outs that look alike come from different tables or passages of the source.

Columns and labels:
[1] = test system: WNV replicon; test: WNV Rluc reporter replicon inhibition assay in Vero/WNV cells; assay type: cell-based, West Nile virus; conditions: 24 h; for EC50: read-out: WNV replicon EC50; for % replicon inhibition (Means ± SEM) WNV: 50 μM
[2] = test system: DENV2; test: Direct plaque assay; assay type: cell-based, Dengue virus type 2; conditions: MOI of 0.01
[3] = test system: DENV2; test: qRT-PCR of intracellular and extracellular DENV2 RNA in infected BHK-21 cells; assay type: cell-based, Dengue virus type 2; conditions: 5 μM, MOI of 1, 72 h
[4] = molecular target: DENV2 5'-RNA methyltransferase (NS5FL) (Dengue virus type 2, UniProt P14340); assay type: biochemical
[5] = molecular target: T1, DENV2 NS2B-NS3 protease (Dengue virus type 2, UniProt P14340); assay type: biochemical
T1 sequence (P14340 1476-1653 limits assumed): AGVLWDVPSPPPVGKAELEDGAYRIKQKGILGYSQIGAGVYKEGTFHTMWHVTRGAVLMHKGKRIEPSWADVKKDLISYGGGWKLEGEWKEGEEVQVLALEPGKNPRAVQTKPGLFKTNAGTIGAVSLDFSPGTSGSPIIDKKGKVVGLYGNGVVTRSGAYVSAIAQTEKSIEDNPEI
T1 sequence (P14340 1398-1437 limits assumed): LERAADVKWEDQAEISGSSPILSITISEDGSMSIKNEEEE

[6] = Cytotoxicity; conditions: African green monkey, naïve Vero cells
[7] = molecular target: DENV2 NS5 RdRP (Dengue virus type 2, UniProt P14340); test: RNA-dependent RNA polymerase assay; assay type: biochemical
[8] = Viability of replicon expressing cells; conditions: hamster, BHK-21 cells expressing DENV2 replicon
[9] = test system: DENV2; test: DENV2 infectivity in BHK-21 cells, plaque assay of supernatants; assay type: cell-based, Dengue virus type 2
[10] = test system: DENV2 replicon; test: DENV2 Rluc reporter replicon inhibition assay in BHK-21/DENV2 cells; assay type: cell-based, Dengue virus type 2; conditions: for % replicon inhibition (Means ± SEM) DENV2: 50 μM, 24 h, BHK-21/DENV2 replicon cells; for EC50: Dengue virus
[11] = molecular target: Renilla luciferase (Rluc) (Renilla reniformis, UniProt P27652); assay type: biochemical
Renilla luciferase (Rluc), sequence (P27652 whole entry, looked up): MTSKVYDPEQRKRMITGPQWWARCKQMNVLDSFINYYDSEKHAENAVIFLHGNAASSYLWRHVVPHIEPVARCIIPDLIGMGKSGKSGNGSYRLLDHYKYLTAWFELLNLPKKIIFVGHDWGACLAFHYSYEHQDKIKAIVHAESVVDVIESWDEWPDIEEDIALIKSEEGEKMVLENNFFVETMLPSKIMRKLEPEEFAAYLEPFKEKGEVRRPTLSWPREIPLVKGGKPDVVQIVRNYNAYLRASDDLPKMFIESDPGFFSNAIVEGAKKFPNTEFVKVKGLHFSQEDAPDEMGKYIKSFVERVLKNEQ

[12] = test system: Vero cells; test: Cytotoxicity; conditions: read-out: WNV replicon CC50; Vero cells, 24 h
[13] = test system: BHK-21 cells; test: Cytotoxicity; conditions: read-out: DENV2 replicon CC50, 24 h
[14] = DENV2, BHK-21, 24 h, read-out: DENV2 replicon EC50
[15] = Vero/WNV replicon cells, Rluc, initial screening

CCN(CC)Cc1cc(Nc2ccnc3cc(Cl)ccc23)ccc1O [Compound 1, 4-[(7-chloroquinolin-4-yl)amino]-2(diethylaminomethyl)phenol]
inhibition at 50 µM ([1]; West Nile virus, Vero, read-out: % replicon inhibition (Means ± SEM) WNV, 50 μM, 24 h, Vero/WNV replicon cells): 96.3 ± 0.39%
EC50 ([1]; West Nile virus, Vero): 14.6 ± 2.21 µM
effect on DENV2 adsorption ([2]; 5 μM during adsorption only): does not inhibit DENV2 adsorption
virus titer reduction, direct plaque assay ([2]; 10 μM during adsorption only): 69.23 ± 1.57%
virus titer reduction, direct plaque assay ([2]; 25 μM during adsorption only): 82.70 ± 2.48%
intracellular and extracellular DENV2 RNA levels (qRT-PCR) [3]: effectively inhibited DENV2 replication
inhibition of formation of type I cap by NS5FL [4]: did not inhibit
effect on DENV2 protease [5]: no effect
CC50 at 24 h [6]: 24.4 ± 2.49 µM
Inhibition of RdRP activity, positive-strand RNA synthesis ([7]; 50 μM, 60 min): 10.58 ± 0.94%
inhibition at 50 µM ([7]; read-out: Inhibition of RdRP activity, negative-strand synthesis): -17.1 ± 4.37%
CC50 at 48 h [8]: 52.1 ± 4.25 µM
plaque reduction, time of addition assay ([9]; 5 μM added as late as 15 h post-infection, MOI of 1, supernatants at 72 h): ≥ 90%
effect when added late, time of addition assay ([9]; 5 μM added at 21 h post-infection and later, MOI of 1): lost its inhibitory effect
reduction of plaque titer from DMSO control, order of addition assay ([9]; 5 μM added post-infection, MOI of 1, 48 and 72 h post-infection): ≥ 90%
plaque formation reduced (time course) ([9]; 5 μM, MOI of 0.01, up to 96 h): ≥ 90%
stability of AQ in infected cell culture ([9]; concluded from time course of inhibition, 37 °C, post-infection): at least 96 h
% replicon inhibition (Means ± SEM) DENV2 ([10]; listed as AQ): 76.31 ± 1.60%
EC50 [10, 14]: 10.8 ± 1.43 µM
EC50 ([10]; DENV2, BHK-21, 48 h, read-out: EC50 DENV2 replicon replication): 7.41 ± 1.09 µM
interference with Rluc enzyme activity [11]: did not interfere

Cl.ClCCN(CCCl)c1ccc(CCNc2ccnc3cc(Cl)ccc23)cc1 [Compound 4, Chloroquine ethyl phenyl mustard]
% replicon inhibition (Means ± SEM) WNV ([1]; Vero/WNV replicon cells): > 99%
EC50 [1, 15]: 1.55 ± 0.4 µM
CC50 [12]: 5.02 ± 1.23 µM
CC50 [13]: 74.1 ± 21.5 µM
% replicon inhibition (Means ± SEM) DENV2 [10]: > 99%

CC(CCCN(CCCl)CCCl)Nc1ccnc2cc(Cl)ccc12 (stereo not drawn) [Compound 5, Chloroquine mustard]
% replicon inhibition (Means ± SEM) WNV ([1]; Vero/WNV replicon cells): > 99%
EC50 ([1]; West Nile virus, Vero): 2.95 ± 0.77 µM
CC50 at 24 h [6]: 3.64 ± 0.93 µM
% replicon inhibition (Means ± SEM) DENV2 [10]: > 99%
EC50 [10, 14]: 2.9 ± 0.78 µM

Quinacrine mustard [Compound 9]
% replicon inhibition (Means ± SEM) WNV ([1]; Vero/WNV replicon cells): > 99%
EC50 [1, 15]: 0.36 ± 0.09 µM
CC50 [12]: 0.97 ± 0.11 µM
CC50 [13]: 2.4 ± 0.63 µM
% replicon inhibition (Means ± SEM) DENV2 [10]: > 99%
